Results: article PMC5384962, “First-in-human studies of seletalisib, an orally bioavailable small-molecule PI3Kδ inhibitor for the treatment of immune and inflammatory diseases” (European Journal of Clinical Pharmacology, 2017)

Experiment: Study-2 safety/tolerability (adverse events)
Procedure: In total, 60 subjects were enrolled into five dose cohorts (n = 12 in each), and subjects were randomised (3:1) to receive seletalisib or placebo. Study-2 included initial dose cohorts of 30, 60 and 90 mg once-daily plus additional dose cohorts of 30 mg twice-daily and 45 mg once-daily.
Adverse events (AEs), serious AEs (SAEs), routine clinical laboratory parameters, vital signs and ECGs were monitored throughout the study periods and for ≤7 days post-administration of final-dose of seletalisib/placebo. The potential for seletalisib to cause gastrointestinal (GI) tract adverse effects was assessed by careful monitoring of subject reports of AEs such as abdominal pain, bloating, nausea, vomiting and alteration of bowel function (e.g. diarrhoea, constipation or bleeding). A formal safety review was conducted before each dose escalation. In Study-1 (Part-B), the potential for seletalisib to interfere with insulin signalling was assessed by monitoring blood glucose and C-peptide levels as part of the standard laboratory tests and by performance of oral glucose tolerance tests, measuring glucose and C-peptide levels, pre-dose and during exposure in all cohorts.
In each study, the primary population for analysis was the full analysis set (FAS), which comprised all subjects who had received ≥1 dose of seletalisib or placebo. PK analysis was performed on the PK per-protocol set (PK-PPS), which was a subset of the FAS consisting of subjects with no important protocol deviations likely to affect PK variables who received seletalisib; subjects who received placebo were excluded from this analysis. In Study-1 and Study-2, sample sizes of 57 and 36 subjects, respectively, were considered sufficient to permit assessment of the safety and tolerability of seletalisib and were not based on statistical considerations of power and sample size. In Study-1 (Part-A), a panel size of 15 subjects was selected to achieve good estimates of the PK/PD parameters.

SMILES: [O-][n+]1cccc(-c2nc3c(Cl)cccc3cc2[C@@H](Nc2ncnc3cccnc23)C(F)(F)F)c1 [Seletalisib, seletalisib]
- Deaths (Study-2, 30 mg BID): 0 n (%)
- Deaths (Study-2, 30 mg QD): 0 n (%)
- Deaths (Study-2, 45 mg QD): 0 n (%)
- Deaths (Study-2, 60 mg QD): 0 n (%)
- Deaths (Study-2, 90 mg QD): 0 n (%)
- Deaths (Study-2, seletalisib total): 0 n (%)
- Any AE, number of events […] (human, in vivo): 169
- number of rash-related AEs (human, in vivo): 18
- number of subjects with AEs relating to GI disturbance (human, in vivo): 10
- number of subjects with rash-related AEs (human, in vivo): 12
- subjects who discontinued the study due to an AE (human, in vivo): 13.3%
- subjects who experienced an AE (human, in vivo): 71.1%
- subjects with SAEs (human, in vivo): 4.4%
- subjects with headache (human, in vivo): 24.4%
- subjects with rash (human, in vivo): 24.4%
- Abdominal discomfort (human, in vivo, 14 days): 2 (4.4) n (%)
- Abdominal pain (human, in vivo, 14 days): 5 (11.1) n (%)
- Any AE (human, in vivo, 14 days): 32 (71.1) n (%)
- Dermatitis, contact (human, in vivo, 14 days): 4 (8.9) n (%)
- Diarrhoea (human, in vivo, 14 days): 3 (6.7) n (%)
- Discontinuations due to AEs (human, in vivo, 14 days): 6 (13.3) n (%)
- Discontinuations due to AEs, number of events […] (human, in vivo, 14 days): 6
- Dizziness (human, in vivo, 14 days): 5 (11.1) n (%)
- Drug-related AEs (human, in vivo, 14 days): 24 (53.3) n (%)
- Drug-related AEs, number of events […] (human, in vivo, 14 days): 136
- Dry mouth (human, in vivo, 14 days): 2 (4.4) n (%)
- Dysgeusia (human, in vivo, 14 days): 5 (11.1) n (%)
- Furuncle (human, in vivo, 14 days): 2 (4.4) n (%)
- Headache (human, in vivo, 14 days): 11 (24.4) n (%)
- Initial insomnia (human, in vivo, 14 days): 2 (4.4) n (%)
- Nausea (human, in vivo, 14 days): 6 (13.3) n (%)
- Oropharyngeal pain (human, in vivo, 14 days): 6 (13.3) n (%)
- Rash (human, in vivo, 14 days): 11 (24.4) n (%)
- Rash, generalised (human, in vivo, 14 days): 3 (6.7) n (%)
- Regurgitation (human, in vivo, 14 days): 2 (4.4) n (%)
- Serious AEs (human, in vivo, 14 days): 2 (4.4) n (%)
- Serious AEs, number of events […] (human, in vivo, 14 days): 2
- Severe AEs (human, in vivo, 14 days): 3 (6.7) n (%)
- Severe AEs, number of events […] (human, in vivo, 14 days): 3
- Somnolence (human, in vivo, 14 days): 2 (4.4) n (%)
- Toothache (human, in vivo, 14 days): 2 (4.4) n (%)
- Hypoaesthesia oral (human, in vivo, po, 14 days): 2 (4.4) n (%)
- number of AEs relating to GI disturbance (in vivo): Thirty-two
- number of infection-related AEs (in vivo): four
